Assays:
Assay in all cases: biochemical
Assay type in all cases: binding
panel of 442 kinases [1] = target: T1, panel of 442 kinases (Homo sapiens, UniProt P36888, K663Q); settings: FLT3(K663Q); for remaining activity at 1 µM: read-out: % of control at 1 µM
T1 construct: purchased Ambit Biosciences (scanMAXX KINOMEscan)
T1 sequence (P36888 27-993 K663Q): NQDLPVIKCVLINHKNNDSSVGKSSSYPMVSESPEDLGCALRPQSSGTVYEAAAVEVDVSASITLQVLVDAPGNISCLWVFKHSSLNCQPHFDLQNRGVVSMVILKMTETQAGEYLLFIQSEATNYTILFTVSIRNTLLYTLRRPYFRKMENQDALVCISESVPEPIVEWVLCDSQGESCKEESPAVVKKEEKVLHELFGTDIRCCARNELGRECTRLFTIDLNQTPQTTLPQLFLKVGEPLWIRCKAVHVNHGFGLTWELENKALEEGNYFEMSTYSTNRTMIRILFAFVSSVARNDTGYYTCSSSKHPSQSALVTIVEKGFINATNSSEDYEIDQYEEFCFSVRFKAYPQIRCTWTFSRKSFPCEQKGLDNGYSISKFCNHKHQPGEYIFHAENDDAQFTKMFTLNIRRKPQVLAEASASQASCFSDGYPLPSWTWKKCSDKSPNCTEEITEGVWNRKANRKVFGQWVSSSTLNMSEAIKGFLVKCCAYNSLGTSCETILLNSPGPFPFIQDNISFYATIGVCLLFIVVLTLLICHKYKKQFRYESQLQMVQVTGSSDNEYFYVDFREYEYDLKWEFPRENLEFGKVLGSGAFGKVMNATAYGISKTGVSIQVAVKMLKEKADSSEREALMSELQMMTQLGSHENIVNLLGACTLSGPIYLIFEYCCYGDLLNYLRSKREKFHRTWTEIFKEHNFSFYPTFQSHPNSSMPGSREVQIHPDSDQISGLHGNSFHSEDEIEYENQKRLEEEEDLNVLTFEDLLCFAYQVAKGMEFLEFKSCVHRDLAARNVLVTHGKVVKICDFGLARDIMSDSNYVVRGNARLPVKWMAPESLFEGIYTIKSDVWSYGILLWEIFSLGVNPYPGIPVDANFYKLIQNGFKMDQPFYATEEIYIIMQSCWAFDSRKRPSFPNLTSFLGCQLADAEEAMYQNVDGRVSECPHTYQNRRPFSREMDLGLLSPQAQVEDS

panel of 442 kinases [2] = target: T2, panel of 442 kinases (Homo sapiens, UniProt P51813); settings: BMX; for remaining activity at 1 µM: read-out: % of control at 1 µM
T2 construct: purchased Ambit Biosciences (scanMAXX KINOMEscan)
T2 sequence (P51813 1-675): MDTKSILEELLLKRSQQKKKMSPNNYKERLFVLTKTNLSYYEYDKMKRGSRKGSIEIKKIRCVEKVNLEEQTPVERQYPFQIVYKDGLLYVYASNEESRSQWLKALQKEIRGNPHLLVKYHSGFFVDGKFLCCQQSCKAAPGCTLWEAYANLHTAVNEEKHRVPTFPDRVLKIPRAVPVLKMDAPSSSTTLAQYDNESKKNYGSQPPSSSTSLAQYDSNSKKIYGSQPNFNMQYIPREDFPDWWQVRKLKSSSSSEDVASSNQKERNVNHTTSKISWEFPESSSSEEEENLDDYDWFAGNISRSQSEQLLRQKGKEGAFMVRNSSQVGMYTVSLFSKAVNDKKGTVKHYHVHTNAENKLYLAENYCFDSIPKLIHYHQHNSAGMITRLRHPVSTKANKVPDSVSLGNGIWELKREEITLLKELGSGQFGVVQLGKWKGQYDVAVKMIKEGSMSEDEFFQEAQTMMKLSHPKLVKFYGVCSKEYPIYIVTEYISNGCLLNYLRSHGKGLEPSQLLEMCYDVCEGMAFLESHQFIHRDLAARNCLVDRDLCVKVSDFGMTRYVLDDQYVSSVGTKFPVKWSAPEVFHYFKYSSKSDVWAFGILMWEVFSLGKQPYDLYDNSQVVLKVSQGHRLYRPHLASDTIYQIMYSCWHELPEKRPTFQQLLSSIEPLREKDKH

panel of 442 kinases [3] = target: T3, panel of 442 kinases (Homo sapiens, UniProt P51957); settings: kinase NEK4; for remaining activity at 1 µM: read-out: % of control at 1 µM
T3 construct: purchased Ambit Biosciences (scanMAXX KINOMEscan)

panel of 442 kinases [4] = target: T4, panel of 442 kinases (Homo sapiens, UniProt Q00536); settings: kinase PCTK1; for remaining activity at 1 µM: read-out: % of control at 1 µM
T4 construct: purchased Ambit Biosciences (scanMAXX KINOMEscan)

panel of 442 kinases [5] = target: T5, panel of 442 kinases (Homo sapiens, UniProt Q6DT37); settings: DMPK2; for remaining activity at 1 µM: read-out: % of control at 1 µM
T5 construct: purchased Ambit Biosciences (scanMAXX KINOMEscan)

panel of 442 kinases [6] = target: T6, panel of 442 kinases (Homo sapiens, UniProt Q9H2G2); settings: kinase SLK; for remaining activity at 1 µM: read-out: SLK (% of control at 1 µM)
T6 construct: purchased Ambit Biosciences (scanMAXX KINOMEscan)

[7] = 10 µM, read-out: % of control at 10 µM

T4 sequence (Q00536 whole entry): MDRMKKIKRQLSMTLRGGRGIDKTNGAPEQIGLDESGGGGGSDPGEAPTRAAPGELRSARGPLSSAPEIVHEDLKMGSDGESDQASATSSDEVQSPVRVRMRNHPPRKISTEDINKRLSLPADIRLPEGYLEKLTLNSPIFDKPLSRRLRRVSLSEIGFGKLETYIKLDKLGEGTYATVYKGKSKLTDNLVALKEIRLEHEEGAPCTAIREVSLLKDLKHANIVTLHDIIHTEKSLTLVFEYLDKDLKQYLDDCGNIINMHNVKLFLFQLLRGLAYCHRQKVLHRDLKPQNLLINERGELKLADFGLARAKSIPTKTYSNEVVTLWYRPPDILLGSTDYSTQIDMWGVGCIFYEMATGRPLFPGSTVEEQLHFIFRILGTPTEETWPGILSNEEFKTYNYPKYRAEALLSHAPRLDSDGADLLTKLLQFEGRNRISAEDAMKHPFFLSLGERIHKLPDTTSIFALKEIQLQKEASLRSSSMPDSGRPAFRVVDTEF
T5 sequence (Q6DT37 whole entry): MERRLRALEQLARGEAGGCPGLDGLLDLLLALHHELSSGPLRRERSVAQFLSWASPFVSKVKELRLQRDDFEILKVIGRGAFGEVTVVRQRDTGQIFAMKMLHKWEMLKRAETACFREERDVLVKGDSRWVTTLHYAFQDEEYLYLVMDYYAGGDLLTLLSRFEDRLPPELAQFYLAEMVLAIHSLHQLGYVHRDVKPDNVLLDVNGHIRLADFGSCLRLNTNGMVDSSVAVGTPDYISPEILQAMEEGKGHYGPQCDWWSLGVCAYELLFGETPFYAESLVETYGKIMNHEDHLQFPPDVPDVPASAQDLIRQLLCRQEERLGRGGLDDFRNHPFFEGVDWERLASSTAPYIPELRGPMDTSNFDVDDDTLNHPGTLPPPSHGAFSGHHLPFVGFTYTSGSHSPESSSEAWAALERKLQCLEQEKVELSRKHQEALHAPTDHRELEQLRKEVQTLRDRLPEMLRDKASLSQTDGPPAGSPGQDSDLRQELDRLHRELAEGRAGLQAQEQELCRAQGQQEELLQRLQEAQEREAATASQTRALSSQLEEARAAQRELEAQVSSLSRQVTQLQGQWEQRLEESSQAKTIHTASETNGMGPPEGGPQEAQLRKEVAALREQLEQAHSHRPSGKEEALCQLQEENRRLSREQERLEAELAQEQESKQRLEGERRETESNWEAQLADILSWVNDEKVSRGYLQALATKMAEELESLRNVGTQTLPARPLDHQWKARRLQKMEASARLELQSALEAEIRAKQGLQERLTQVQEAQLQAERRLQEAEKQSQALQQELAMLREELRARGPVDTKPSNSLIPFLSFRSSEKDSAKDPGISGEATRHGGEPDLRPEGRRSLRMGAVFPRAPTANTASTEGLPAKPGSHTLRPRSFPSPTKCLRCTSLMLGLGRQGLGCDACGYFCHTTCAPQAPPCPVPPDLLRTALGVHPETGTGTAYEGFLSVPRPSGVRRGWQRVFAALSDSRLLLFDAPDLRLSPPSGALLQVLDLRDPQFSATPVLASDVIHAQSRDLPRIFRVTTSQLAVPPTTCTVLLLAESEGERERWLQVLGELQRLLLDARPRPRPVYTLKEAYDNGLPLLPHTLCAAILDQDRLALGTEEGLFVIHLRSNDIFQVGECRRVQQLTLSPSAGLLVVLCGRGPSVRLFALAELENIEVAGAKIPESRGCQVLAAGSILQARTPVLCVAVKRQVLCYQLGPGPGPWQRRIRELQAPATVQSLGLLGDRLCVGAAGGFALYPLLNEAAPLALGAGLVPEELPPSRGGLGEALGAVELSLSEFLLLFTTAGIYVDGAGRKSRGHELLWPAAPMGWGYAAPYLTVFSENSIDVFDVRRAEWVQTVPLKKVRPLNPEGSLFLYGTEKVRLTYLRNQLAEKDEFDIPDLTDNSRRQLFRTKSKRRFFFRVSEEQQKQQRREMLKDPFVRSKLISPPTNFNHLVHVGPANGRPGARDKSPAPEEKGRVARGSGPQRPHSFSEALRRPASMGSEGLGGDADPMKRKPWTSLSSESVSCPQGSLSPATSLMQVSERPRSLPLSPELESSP
T6 sequence (Q9H2G2 whole entry): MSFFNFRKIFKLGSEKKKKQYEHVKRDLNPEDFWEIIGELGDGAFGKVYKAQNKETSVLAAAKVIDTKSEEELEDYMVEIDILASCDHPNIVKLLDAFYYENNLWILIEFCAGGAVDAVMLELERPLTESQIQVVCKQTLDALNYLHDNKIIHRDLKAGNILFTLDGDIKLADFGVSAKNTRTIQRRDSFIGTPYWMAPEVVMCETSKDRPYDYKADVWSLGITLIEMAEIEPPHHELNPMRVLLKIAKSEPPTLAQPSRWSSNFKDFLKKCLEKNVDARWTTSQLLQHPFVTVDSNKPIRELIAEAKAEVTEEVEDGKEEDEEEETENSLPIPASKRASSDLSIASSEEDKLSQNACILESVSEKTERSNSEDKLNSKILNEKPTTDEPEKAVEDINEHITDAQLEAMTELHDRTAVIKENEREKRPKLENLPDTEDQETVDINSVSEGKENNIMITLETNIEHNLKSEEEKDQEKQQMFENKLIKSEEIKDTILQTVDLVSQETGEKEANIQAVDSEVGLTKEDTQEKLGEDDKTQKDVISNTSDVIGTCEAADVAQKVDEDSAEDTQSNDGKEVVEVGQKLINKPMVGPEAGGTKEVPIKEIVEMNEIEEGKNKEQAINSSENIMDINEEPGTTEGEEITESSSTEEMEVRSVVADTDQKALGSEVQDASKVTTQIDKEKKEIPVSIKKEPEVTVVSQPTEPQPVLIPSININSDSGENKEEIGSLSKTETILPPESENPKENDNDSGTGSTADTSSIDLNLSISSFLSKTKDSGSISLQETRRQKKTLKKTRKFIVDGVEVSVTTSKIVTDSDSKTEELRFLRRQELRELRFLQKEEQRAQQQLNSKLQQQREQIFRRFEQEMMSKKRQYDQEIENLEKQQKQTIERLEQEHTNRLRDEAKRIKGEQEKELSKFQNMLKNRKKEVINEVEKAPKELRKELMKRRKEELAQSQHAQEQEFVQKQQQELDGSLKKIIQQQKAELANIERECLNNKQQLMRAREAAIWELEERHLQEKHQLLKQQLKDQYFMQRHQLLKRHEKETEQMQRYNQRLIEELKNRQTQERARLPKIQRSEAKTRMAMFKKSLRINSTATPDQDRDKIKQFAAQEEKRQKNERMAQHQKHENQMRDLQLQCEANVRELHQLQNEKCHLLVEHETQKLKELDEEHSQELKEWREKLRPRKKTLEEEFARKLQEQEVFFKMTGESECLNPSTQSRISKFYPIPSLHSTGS
T3 sequence (P51957 whole entry): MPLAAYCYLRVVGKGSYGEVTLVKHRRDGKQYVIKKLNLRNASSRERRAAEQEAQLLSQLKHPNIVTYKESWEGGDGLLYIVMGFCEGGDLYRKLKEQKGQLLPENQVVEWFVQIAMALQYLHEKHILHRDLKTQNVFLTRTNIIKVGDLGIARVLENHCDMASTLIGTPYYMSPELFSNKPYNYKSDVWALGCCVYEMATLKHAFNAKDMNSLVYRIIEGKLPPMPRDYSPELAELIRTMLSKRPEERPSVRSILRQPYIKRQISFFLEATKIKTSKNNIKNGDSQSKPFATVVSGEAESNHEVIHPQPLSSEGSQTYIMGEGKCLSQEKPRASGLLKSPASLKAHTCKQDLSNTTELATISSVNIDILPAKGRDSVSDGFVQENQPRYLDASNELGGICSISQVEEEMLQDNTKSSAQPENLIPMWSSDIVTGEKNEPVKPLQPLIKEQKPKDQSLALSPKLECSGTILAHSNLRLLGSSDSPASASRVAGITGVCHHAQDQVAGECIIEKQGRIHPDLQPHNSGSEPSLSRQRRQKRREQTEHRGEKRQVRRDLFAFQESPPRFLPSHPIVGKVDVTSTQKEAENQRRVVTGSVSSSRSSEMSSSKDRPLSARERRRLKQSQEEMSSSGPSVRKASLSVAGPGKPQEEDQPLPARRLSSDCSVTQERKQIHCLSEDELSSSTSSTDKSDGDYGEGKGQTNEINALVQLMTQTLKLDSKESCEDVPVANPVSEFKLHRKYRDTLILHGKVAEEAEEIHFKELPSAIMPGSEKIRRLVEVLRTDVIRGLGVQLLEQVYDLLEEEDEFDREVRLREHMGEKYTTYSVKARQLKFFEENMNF

Compound `Nc1cc(C(F)(F)F)c(-c2cc(N3CCOCC3)nc(N3CCOCC3)n2)cn1` [Buparlisib] has a remaining activity at 1 µM (panel of 442 kinases [1]) of 95%, a remaining activity at 10 µM (panel of 442 kinases [1]; [7]) of 100% and a remaining activity at 1 µM (panel of 442 kinases [2]) of 100%. For the same compound, the remaining activity at 10 µM (panel of 442 kinases [2]; [7]) was 100%, the remaining activity at 1 µM (panel of 442 kinases [3]) was 77% and the remaining activity at 10 µM (panel of 442 kinases [3]; [7]) was 99%. For the same compound, the remaining activity at 1 µM (panel of 442 kinases [4]) was 79%, the remaining activity at 10 µM (panel of 442 kinases [4]; [7]) was 100% and the remaining activity at 1 µM (panel of 442 kinases [5]) was 100%. It also gave a remaining activity at 10 µM (panel of 442 kinases [5]; [7]) of 100%, a remaining activity at 1 µM (panel of 442 kinases [6]) of 100% and a remaining activity at 10 µM (panel of 442 kinases [6]; 10 µM, read-out: SLK (% of control at 10 µM)) of 100%.

In the case of `Cn1c(=O)n(-c2ccc(C(C)(C)C#N)cc2)c2c3cc(-c4cnc5ccccc5c4)ccc3ncc21` [Dactolisib, 2-methyl-2-[4-(3-methyl-2-oxo-8-quinolin-3-yl-2,3-dihydroimidazo[4,5-c]quinolin-1-yl)-phenyl] propionitrile], the remaining activity at 1 µM (panel of 442 kinases [1]) is reported as 63%, the remaining activity at 1 µM (panel of 442 kinases [3]) is reported as 88% and the remaining activity at 1 µM (panel of 442 kinases [4]) is reported as 100%. It also gave a remaining activity at 1 µM (panel of 442 kinases [5]) of 81% and a remaining activity at 1 µM (panel of 442 kinases [6]) of 89%.

In the case of `COc1ncc(-c2ccc3nccc(-c4ccnnc4)c3c2)cc1NS(=O)(=O)c1ccc(F)cc1F` [Omipalisib], the remaining activity at 1 µM (panel of 442 kinases [1]) is reported as 100%, the remaining activity at 1 µM (panel of 442 kinases [2]) is reported as 96% and the remaining activity at 1 µM (panel of 442 kinases [3]) is reported as 100%. It also gave a remaining activity at 1 µM (panel of 442 kinases [4]) of 96%, a remaining activity at 1 µM (panel of 442 kinases [5]) of 100% and a remaining activity at 1 µM (panel of 442 kinases [6]) of 100%.

`FC(F)c1nc2ccccc2n1-c1nc(N2CCOCC2)nc(N2CCOCC2)n1` [ZSTK474, 2-(difluoromethyl)-1-[4,6-di(4-morpholinyl)-1,3,5-triazin-2-yl]-1H-benzimidazole] gave a remaining activity at 1 µM (panel of 442 kinases [1]) of 100%, a remaining activity at 1 µM (panel of 442 kinases [2]) of 99% and a remaining activity at 1 µM (panel of 442 kinases [3]) of 100%. It also gave a remaining activity at 1 µM (panel of 442 kinases [4]) of 95%, a remaining activity at 1 µM (panel of 442 kinases [5]) of 88% and a remaining activity at 1 µM (panel of 442 kinases [6]) of 100%.

— publication PMC5564600 (Oncotarget, 2017)
